In the CheMixHub viscosity set:
Several values for one entry are separate records, joined by “and”; a condition that tells them apart may be missing. Equal entries are not always repeated.

Experiment: xn = mol fraction of the nth substance listed

ClC(Cl)(Cl)Cl + C1COCCO1
101 kPa
Conditions	viscosity
298.15 K, x1 = 0.1175	1.203 mPa·s
298.15 K, x1 = 0.219	1.208 mPa·s
298.15 K, x1 = 0.373	1.193 mPa·s
298.15 K, x1 = 0.5081	1.165 mPa·s
298.15 K, x1 = 0.675	1.093 mPa·s
298.15 K, x1 = 0.8092	1.009 mPa·s
298.15 K, x1 = 0.892	0.961 mPa·s
303.15 K, x1 = 0.675	1.007 mPa·s
303.15 K, x1 = 0.8092	0.938 mPa·s
303.15 K, x1 = 0.892	0.896 mPa·s
303.15 K, x2 = 0.0983	0.901 mPa·s
303.15 K, x2 = 0.1116	0.907 mPa·s
303.15 K, x2 = 0.112	0.922 mPa·s
303.15 K, x2 = 0.204	0.957 mPa·s
303.15 K, x2 = 0.2198	0.9914 mPa·s
303.15 K, x2 = 0.22	1.016 mPa·s
303.15 K, x2 = 0.2994	1.011 mPa·s
303.15 K, x2 = 0.4025	1.055 mPa·s
303.15 K, x2 = 0.4985	1.086 mPa·s
303.15 K, x2 = 0.53	1.163 mPa·s
303.15 K, x2 = 0.5302	1.163 mPa·s
303.15 K, x2 = 0.6286	1.164 mPa·s
303.15 K, x2 = 0.629	1.164 mPa·s
303.15 K, x2 = 0.7245	1.161 mPa·s
303.15 K, x2 = 0.725	1.161 mPa·s
303.15 K, x2 = 0.91	1.078 mPa·s and 1.092 mPa·s
308.15 K, x1 = 0.219	1.024 mPa·s
308.15 K, x1 = 0.5081	0.992 mPa·s
308.15 K, x1 = 0.675	0.93 mPa·s
308.15 K, x1 = 0.8092	0.871 mPa·s
308.15 K, x1 = 0.892	0.834 mPa·s
313.15 K, x1 = 0.1175	0.95 mPa·s
313.15 K, x1 = 0.219	0.945 mPa·s
313.15 K, x1 = 0.373	0.934 mPa·s
313.15 K, x1 = 0.5081	0.92 mPa·s
313.15 K, x1 = 0.675	0.866 mPa·s
313.15 K, x1 = 0.8092	0.81 mPa·s
313.15 K, x1 = 0.892	0.778 mPa·s
318.15 K, x1 = 0.1175	0.882 mPa·s
318.15 K, x1 = 0.219	0.876 mPa·s
318.15 K, x1 = 0.373	0.865 mPa·s
318.15 K, x1 = 0.5081	0.85 mPa·s
318.15 K, x1 = 0.675	0.806 mPa·s
318.15 K, x1 = 0.8092	0.757 mPa·s
318.15 K, x1 = 0.892	0.73 mPa·s

ClC(Cl)(Cl)Cl + C=C(C)C(=O)OC
303.15 K, 101 kPa
Conditions	viscosity [mPa·s]
x2 = 0.0997	0.7954
x2 = 0.1978	0.753
x2 = 0.4056	0.6767
x2 = 0.5067	0.641
x2 = 0.5941	0.6167
x2 = 0.7976	0.5599
x2 = 0.8944	0.536

ClC(Cl)(Cl)Cl + CC#N
viscosity [mPa·s], 101 kPa
Conditions	293.15 K	298.15 K	303.15 K	313.15 K	323.15 K
x2 = 0.007	0.954	0.883	0.813	0.74	0.638
x2 = 0.026	0.948	0.855	0.798	0.724	0.612
x2 = 0.084	0.906	0.862	0.831	0.736	0.659

CCCC(C)=O + CC(=O)O
viscosity [mPa·s], 101 kPa
Conditions	x2 = 0.0997	x2 = 0.1996	x2 = 0.2989	x2 = 0.3983	x2 = 0.5013	x2 = 0.6017	x2 = 0.6987	x2 = 0.8081	x2 = 0.8922
298.15 K	0.5074	0.5482	0.5923	0.6401	0.6986	0.7628	0.839	0.9225	1.011
308.15 K	0.4551	0.4882	0.5246	0.5655	0.6134	0.667	0.727	0.8006	0.878
318.15 K	0.4061	0.4339	0.4639	0.4989	0.5394	0.5838	0.635	0.6961	0.7519

ClC(Cl)(Cl)Cl + CC(=O)O
Conditions	viscosity [mPa·s]
298.15 K, 101 kPa, x2 = 0.1	0.84
298.15 K, 101 kPa, x2 = 0.22	0.822
298.15 K, 101 kPa, x2 = 0.31	0.811
298.15 K, 101 kPa, x2 = 0.39	0.808
298.15 K, 101 kPa, x2 = 0.63	0.832
298.15 K, 101 kPa, x2 = 0.72	0.863
298.15 K, 101 kPa, x2 = 0.79	0.9
298.15 K, 101 kPa, x2 = 0.91	1.007
298.15 K, 101.33 kPa, x2 = 0.214	0.82
298.15 K, 101.33 kPa, x2 = 0.418	0.804
298.15 K, 101.33 kPa, x2 = 0.608	0.816
298.15 K, 101.33 kPa, x2 = 0.805	0.92
303.15 K, 101 kPa, x1 = 0.0697	1.071
303.15 K, 101 kPa, x1 = 0.2172	0.995
303.15 K, 101 kPa, x1 = 0.7482	0.894
313.15 K, 101 kPa, x1 = 0.0697	0.982
313.15 K, 101 kPa, x1 = 0.2172	0.876
313.15 K, 101 kPa, x1 = 0.7482	0.791
323.15 K, 101 kPa, x1 = 0.0697	0.917
323.15 K, 101 kPa, x1 = 0.2172	0.804
323.15 K, 101 kPa, x1 = 0.7482	0.697
